Data: publication PMC12123458, “Unraveling Small Molecule-Mediated Sirtuin 3 Activation at a Distinct Binding Site for Cardioprotective Therapies” (ACS Central Science, 2025)
Read-outs that look alike come from different tables or passages of the source.

Experiments:
SIRT6 = SIRT6 (Homo sapiens, UniProt Q8N6T7); assay: SPR binding to SIRT6
Procedure: (§1) The affinity of SKLB-11A for SIRT1, SIRT2, SIRT3, SIRT5, and SIRT6 was determined using a Reichert 4SPR system (Reichert Technologies, Depew, NY, USA). Proteins at 200 μg/mL were immobilized on a dextran-coated sensor chip (13206066) until reaching ≥12,000 response units (RUs). A dual-flow channel setup was used, reserving one channel for blank controls. SKLB-11A was introduced at varying concentrations for binding and subsequent dissociation kinetic analysis. Data acquisition was at 25 °C utilizing a PBST running buffer (pH 7.4). The equilibrium dissociation constant (K d) was computed from steady-state affinity measurements using TraceDrawer software.

[1] = Pharmacokinetics in SD rats; type: in vivo, Sprague–Dawley (SD) rats; conditions: for MRT inf: read-out: MRT0–∞; for half-life: read-out: T1/2z (converted)
Procedure: Given the potential of SKLB-11A for treating myocardial injury, we further evaluated its pharmacokinetic profile in Sprague–Dawley (SD) rats (Supplementary Table S5). The pharmacokinetics were assessed following both intravenous injection (1 mg/kg) and intragastric administration (10 mg/kg) of SKLB-11A.

H9c2 cells [2] = assay: OGD/R injury model in vitro; type: cell-based; conditions: pretreatment for 24 h, 10 μM
Procedure: An in vitro oxygen-glucose deprivation (OGD) injury model was established as described in a previous study. OGD injury was induced by incubating cells in glucose-free DMEM under hypoxic conditions (94% N2, 1% O2, and 5% CO2) for 6 h. Before the hypoxic phase, cells were treated with SKLB-11A (10 μM). The cells were then incubated in normoxic conditions with normal medium at 37 °C for the indicated time of 24 h as reperfusion. Untreated cells were used as controls.

SIRT5 [3] = target: T1, SIRT5 (Homo sapiens, UniProt Q9NXA8); assay: Coupled enzymatic assay, succinylated CPS1-K537 substrate; type: biochemical; conditions: 100 μM
T1 sequence (Q9NXA8 37-310): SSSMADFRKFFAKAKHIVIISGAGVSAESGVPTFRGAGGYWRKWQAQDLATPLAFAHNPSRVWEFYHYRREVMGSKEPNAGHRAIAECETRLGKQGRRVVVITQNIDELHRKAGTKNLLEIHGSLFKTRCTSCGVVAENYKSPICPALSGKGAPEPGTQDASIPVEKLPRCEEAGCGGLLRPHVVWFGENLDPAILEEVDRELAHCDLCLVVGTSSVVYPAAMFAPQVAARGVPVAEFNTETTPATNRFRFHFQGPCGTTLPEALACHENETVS
Text: (§2) Additionally, we used surface plasmon resonance (SPR) to measure the binding of SKLB-11A to immobilized SIRT3. […] We next evaluated the selectivity of SKLB-11A for different SIRT family members. […] We next examined the functional specificity of SKLB-11A using coupled enzymatic assays with isoform-specific, physiologically relevant substrates: acetylated p53-K381 for SIRT1, acetylated α-tubulin-K25 for SIRT2, acetylated MnSOD-K122 for SIRT3, and succinylated CPS1-K537 for SIRT5 (Supplementary Table S3). […] Using Schrödinger molecular docking simulations, we assessed the binding interactions of SKLB-11A with SIRT isoforms.

H9c2 cells [4] = assay: ATP content in Dox-treated H9c2 cells; type: cell-based; conditions: 10 μM
Procedure: ATP concentrations were detected by a firefly luciferin/luciferase-based ATP bioluminescence assay kit (Beyotime, China). The ATP contents were determined as nmol/mg protein by using SYNERGY 4 Microplate Reader (BioTek Instruments).

SIRT3 [5] = target: T2, SIRT3 (Homo sapiens, UniProt Q9NTG7); assay: Coupled enzymatic assay, acetylated MnSOD-K122 substrate; type: biochemical; conditions: 100 μM
T2 construct: purchased Enzo Life Sciences BML-AK557-0001
T2 sequence (Q9NTG7 1-399): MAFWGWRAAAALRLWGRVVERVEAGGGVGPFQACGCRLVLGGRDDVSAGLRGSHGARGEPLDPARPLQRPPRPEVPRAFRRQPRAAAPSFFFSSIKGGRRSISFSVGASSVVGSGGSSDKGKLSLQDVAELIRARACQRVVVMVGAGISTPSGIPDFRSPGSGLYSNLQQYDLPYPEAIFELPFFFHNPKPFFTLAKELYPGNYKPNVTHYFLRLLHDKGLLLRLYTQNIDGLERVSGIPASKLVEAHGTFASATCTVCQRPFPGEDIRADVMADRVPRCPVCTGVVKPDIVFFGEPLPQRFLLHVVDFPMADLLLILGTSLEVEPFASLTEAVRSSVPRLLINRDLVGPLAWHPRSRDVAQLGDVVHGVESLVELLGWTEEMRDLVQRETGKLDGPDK
Text: as §2

[6] = tested on: myocardial ischemia/reperfusion (I/R) injury model; assay: Mouse model of myocardial I/R injury; type: in vivo, C57BL/6J mice
SIRT3 [7] = target: T2, SIRT3; assay: Fluor de Lys (FDL) fluorimetric SIRT3 deacetylase activity assay; type: biochemical
Procedure: The SIRT3 activity was assessed using the Enzo Life Sciences kit (BML-AK557-0001) per the protocol provided. A 10 μM fluoro-acetylated p53 peptide and 500 μM NAD^+ were added to SIRT3 assay buffer, incubated with test compounds and 0.5 μg recombinant SIRT3 at 37 °C for 30 min. In the mass spectrometry (MS) assay, 5 μM hSirt3 was reacted with 0.25 mM peptide and 1.25 mM NAD^+, with or without 10 μM SKLB-11A in 2% DMSO, at 37 °C. Controls included 2% DMSO without SKLB-11A. The reaction was halted at defined intervals using 5 mM nicotinamide, and the mixture then underwent filtration and subjected to nano LC-MS/MS analysis. Acetylated Peptide: MnSOD-K122 ([…]-Ac).

SIRT5 [8] = target: T1, SIRT5; assay: SPR binding to SIRT5
Procedure: as §1

[9] = Sprague-Dawley, rat, in vivo, iv, i.v. 1 mg/kg
[10] = Sprague-Dawley, rat, in vivo, po, p.o. 10 mg/kg

Chain of SIRT6 (Q8N6T7 whole entry, species assumed): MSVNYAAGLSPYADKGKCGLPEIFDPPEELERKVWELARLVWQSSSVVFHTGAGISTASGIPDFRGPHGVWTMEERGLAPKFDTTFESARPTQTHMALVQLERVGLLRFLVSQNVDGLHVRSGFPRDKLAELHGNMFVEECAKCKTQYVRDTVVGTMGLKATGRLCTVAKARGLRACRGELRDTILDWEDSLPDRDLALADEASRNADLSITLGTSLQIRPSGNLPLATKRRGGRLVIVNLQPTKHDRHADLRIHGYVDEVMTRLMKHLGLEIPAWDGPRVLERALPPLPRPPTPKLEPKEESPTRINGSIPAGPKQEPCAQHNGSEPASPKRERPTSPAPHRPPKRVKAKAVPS

Q: With `COC(=O)c1c(N)n(Cc2ccc(F)cc2)c2nc3ccccc3nc12` [SKLB-11A, Methyl 2-amino-1-(4-fluorobenzyl)-1H-pyrrolo[2,3-b]quinoxaline-3-carboxylate] as the compound, how does the “binding to SIRT6” value (SIRT6) read?
A: The value was “no binding”.

Q: And the AUC(0-inf) [1, 9]?
A: Its AUC(0-inf) is 185 ± 20 ng·h/mL.

Q: And the AUC(0-t) [1, 9]?
A: The AUC(0-t) was 185 ± 19.9 ng·h/mL.

Q: And the Cmax [1, 9]?
A: The Cmax was 255 ± 3.42 ng/mL.

Q: And the Tmax [1, 9]?
A: The Tmax was 4.8 min.

Q: What about the clearance ([1]; Sprague-Dawley, rat, in vivo, iv, i.v. 1 mg/kg, read-out: CLZ (converted)) of the same compound?
A: The clearance was 90.7 mL/min/kg.

Q: What about the MRT inf [1, 9] of the same compound?
A: The MRT inf was 0.72 ± 0.06 h.

Q: And the half-life [1, 9]?
A: Its half-life is 36 ± 3.6 min.

Q: What about the Vd ([1]; Sprague-Dawley, rat, in vivo, iv, i.v. 1 mg/kg, read-out: VZ) of the same compound?
A: Its Vd is 4.66 ± 0.2 L/kg.

Q: What about the AUC(0-inf) [1, 10] of the same compound?
A: The AUC(0-inf) was 128 ± 29.2 ng·h/mL.

Q: And the AUC(0-t) [1, 10]?
A: The AUC(0-t) was 123 ± 23.6 ng·h/mL.

Q: And the Cmax [1, 10]?
A: Its Cmax is 67.9 ± 13 ng/mL.

Q: And the Tmax [1, 10]?
A: Its Tmax is 15 min.

Q: And the MRT inf [1, 10]?
A: Its MRT inf is 4.44 ± 1.78 h.

Q: What about the half-life [1, 10] of the same compound?
A: The half-life was 326 ± 156 min.

Q: And the VZ ([1]; p.o. 10 mg/kg)?
A: Its VZ is 39.99 ± 12.09 L/kg.

Q: And the OGD/R-induced mitochondrial dysfunction (H9c2 cells [2])?
A: The OGD/R-induced mitochondrial dysfunction was “significantly ameliorated”.

Q: And the “effect on basal SIRT5 desuccinylation activity” value (SIRT5 [3])?
A: The value was “no statistically significant effects”.

Q: And the ATP levels (H9c2 cells [4])?
A: The ATP levels was “capable of increasing ATP levels”.

Q: And the “effect on SIRT3 deacetylation activity” value (SIRT3 [5])?
A: Its value is “pronounced activation”.

Q: And the “I/R-induced elevations in serum LDH, CK-MB, BNP” value ([6]; 20 mg/kg ig, 24 h after I/R surgery)?
A: Its value is “partially reversed”.

Q: What about the infarct size ([6]; 20 mg/kg ig, Evans blue/TTC, 24 h after I/R, vs I/R group) of the same compound?
A: Its infarct size is “significant reduction in infarcted areas”.

Q: What about the I/R-induced cardiac fibrosis ([6]; 20 mg/kg ig, Masson's trichrome, 28 d after I/R) of the same compound?
A: The I/R-induced cardiac fibrosis was “markedly reduced”.

Q: What about the “cardiac function (EF and FS)” value ([6]; 20 mg/kg/day, ig, 1 week, I/R mice) of the same compound?
A: Its value is “restored cardiac function”.

Q: And the “% effect @ 100 µM of SIRT3” value (SIRT3 [7]; 100 µM, FDL deacetylation assay, compared to the control group, mean ± SD)?
A: The value was “maintained or enhanced the activity”.

Q: And the activity at 100 µM (SIRT3 [7]; 0.5 h, 100 µM, FDL deacetylation assay, compared to the control group, mean ± SD, read-out: % effect @ 100 µM of SIRT3)?
A: The activity at 100 µM was 188.1 ± 1.58%.

Q: And the “SIRT3 activation compared with other SIRT3 activators” value (SIRT3 [7]; FDL assay)?
A: Its value is “better SIRT3 activation”.

Q: What about the EC50 (SIRT3 [7]; FDL assay, read-out: EC50, SIRT3 deacetylation activity) of the same compound?
A: The EC50 was 22 ± 1.57 µM.

Q: And the “binding to SIRT5” value (SIRT5 [8])?
A: The value was “no binding”.
